Reference: patent publication US8362023B2, “Pyrazolo pyrimidines” (Hoffmann-La Roche Inc., priority 2011, dated 2013)
Where a name gives a salt, the structure may show the parent alone.

Key:
Human DYRK1A = molecular target: T1, Human DYRK1A (Homo sapiens, UniProt Q13627); assay: DYRK1A Kinase TR-FRET (IMAP-Tb) Assay; format: biochemical; settings: for IC50: TR-FRET (IMAP-Tb), ATP 70 μM, 37° C. for 60 minutes, averages of multiple runs, read-out: Enzyme IC50 (μM) DYRK1A
T1 construct: purchased Invitrogen PV3997
Text: DYRK1A Kinase TR-FRET (IMAP-Tb) Assay
The kinase TR-FRET (IMAP-Tb) assay uses a fluorescence labeled substrate peptide in the kinase reaction. Upon phosphorylation by the kinase, phosphopeptide is produced, which will be detected by the binding solution provided in IMAP TR-FRET binding kit. After the completion of the kinase reaction, the reaction will be stopped by adding the binding solution containing terbium tracer. This tracer is immobilized on the surface of the IMAP beads, which also contain metal ions on the beads that bind to the phospho-groups of the products. Thus the phosphorylated product of the reaction can enter into close proximity to the tracer, producing resonance energy transfer. Due to the long lifetime of terbium (Tb) fluorescence the detection can be run in time resolved mode, which virtually eliminates fluorescence interference from assay components or compounds.
The TR-FRET signal measurement from this assay, given as an IC50 measurement, is a measure of a test compound's ability to interfere with the phosphorylation of the peptide substrate, that is it inhibits the phosphorylation of the substrate peptide by DYRK1A, and is thus a measure of the test compound's ability to inhibit the activity of DYRK1A.
Materials and Reagents • 1. Human DYRK1A: from Invitrogen. Part #PV3997 • 2. Substrate Peptide: […] • 3. IMAP TR-FRET IPP Explorer Kit: from Molecular Devices. Part #R8157 • 4. Kinase Assay Buffer (KAB): 10 mM HEPES pH 7.0, 50 mM NaCl, 5 mM MgCl2, 1 mM DTT, 1 mM NaVO4, 200 ug/mL BSA (0.02%) • 5. Assay Plate: Remp polypropylene clear 384-well microplate. […] Detection Plate: Costa black 384-well microplate.
Assay Procedure: this Assay was Performed as Follows: • 1. Transfer 1.5 μL of 20× compound solution to each well of an assay plate. • 2. Add to each well 22.5 μL of KAB Buffer. • 3. Add to each well 3 μL of the solution of DYRK1A and ATP. […] Add to each well 3 μL of the substrate peptide. The assay concentration is 1.0 μM • 5. Incubate the assay plates at 37° C. for 60 minutes. • 6. Add 18 μL of Detection Solution (1:800 diluted Progress bead stock, 1:400 diluted Tb stock, 80% Buffer A, and 20% Buffer B) into each well of detection plates. • 7. Transfer 6 μL of assay solution from the assay plate to the detection plate. • 8. Shake detection plates for 30 minutes. • 9. Read plates in Envision with wavelength set at excitation 340 nm for Tb, emission 490 nm, and […] 520 nm. • 10.

Human DYRK1B = molecular target: T2, Human DYRK1B (Homo sapiens, UniProt Q9Y463); assay: DYRK1B Kinase TR-FRET (IMAP-Tb) Assay; format: biochemical; settings: for inhibition at 10 µM: at 10 μM test compound concentration, where the IC50 was not determined; for IC50: TR-FRET (IMAP-Tb), ATP 70 μM, 37° C. for 60 minutes, averages of multiple runs, read-out: Enzyme IC50 (μM) DYRK1B
T2 construct: purchased Invitrogen PR8350B (former PV4649)
Text: DYRK1B Kinase TR-FRET (IMAP-Tb) Assay Assay Principle The kinase TR-FRET (IMAP-Tb) assay uses a fluorescence labeled substrate peptide in the kinase reaction. Upon phosphorylation by the kinase, phosphopeptide is produced, which will be detected by the binding solution provided in IMAP TR-FRET binding kit. After the completion of the kinase reaction, the reaction will be stopped by adding the binding solution containing terbium tracer. This tracer is immobilized on the surface of the IMAP beads, which also contain metal ions on the beads that bind to the phospho-groups of the products. Thus the phosphorylated product of the reaction can enter into close proximity to the tracer, producing resonance energy transfer. Due to the long lifetime of terbium (Tb) fluorescence the detection can be run in time resolved mode, which virtually eliminates fluorescence interference from assay components or compounds. The TR-FRET signal measurement from this assay, given as an IC50 measurement, is a measure of a test compound's ability to interfere with the phosphorylation of the peptide substrate, that is it inhibits the phosphorylation of the substrate peptide by DYRK1B, and is thus a measure of the test compound's ability to inhibit the activity of DYRK1B. IC50 is the amount of test compound that inhibits 50% of the activity of DYRK1B in this assay. In some cases where the IC50 was not determined, then the % inhibition at 10 μM test compound concentration may be reported. Materials and Reagents • 1. Human DYRK1B: from Invitrogen. Part #PR8350B (former PV4649) • 2. Substrate Peptide: in-house synthesized: RRRFRPASPLRGPPK • 3. IMAP TR-FRET IPP Explorer Kit: from Molecular Devices. Part #R8157 • 4. Kinase Assay Buffer (KAB): 10 mM HEPES pH 7.0, 50 mM NaCl, 5 mM MgCl2, 1 mM DTT, 1 mM NaVO4, 200 μg/mL BSA (0.02%) • 5. Assay Plate: Remp polypropylene clear 384-well microplate. Cat#23490-102 • 6. Detection Plate: Costa black 384-well microplate. Cat #3710 Assay Procedure: this Assay was Performed as Follows: • 1. Transfer 1.5 μL of 20× compound solution to each well of an assay plate. • 2. Add to each well 22.5 μL of KAB Buffer. • 3. Add to each well 3 μL of the solution of DYRK1B and ATP. […] Add to each well 3 μL of the substrate peptide. The assay concentration is 1.0 μM • 5. Incubate the assay plates at 37° C. for 60 minutes. • 6. Add 18 μL of Detection Solution (1:800 diluted Progress bead stock, 1:400 diluted Tb stock, 80% Buffer A, and 20% Buffer B) into each well of detection plates. • 7. Transfer 6 μL of assay solution from the assay plate to the detection plate. • 8. Shake detection plates for 30 minutes. • 9. Read plates in Envision with wavelength set at excitation 340 nm for Tb, emission 490 nm, and […] 520 nm. • 10. Calculation: TR-FRET Signal=(Reading at […]/Reading at 490 nM)×2000000

T2 sequence (Q9Y463 whole entry): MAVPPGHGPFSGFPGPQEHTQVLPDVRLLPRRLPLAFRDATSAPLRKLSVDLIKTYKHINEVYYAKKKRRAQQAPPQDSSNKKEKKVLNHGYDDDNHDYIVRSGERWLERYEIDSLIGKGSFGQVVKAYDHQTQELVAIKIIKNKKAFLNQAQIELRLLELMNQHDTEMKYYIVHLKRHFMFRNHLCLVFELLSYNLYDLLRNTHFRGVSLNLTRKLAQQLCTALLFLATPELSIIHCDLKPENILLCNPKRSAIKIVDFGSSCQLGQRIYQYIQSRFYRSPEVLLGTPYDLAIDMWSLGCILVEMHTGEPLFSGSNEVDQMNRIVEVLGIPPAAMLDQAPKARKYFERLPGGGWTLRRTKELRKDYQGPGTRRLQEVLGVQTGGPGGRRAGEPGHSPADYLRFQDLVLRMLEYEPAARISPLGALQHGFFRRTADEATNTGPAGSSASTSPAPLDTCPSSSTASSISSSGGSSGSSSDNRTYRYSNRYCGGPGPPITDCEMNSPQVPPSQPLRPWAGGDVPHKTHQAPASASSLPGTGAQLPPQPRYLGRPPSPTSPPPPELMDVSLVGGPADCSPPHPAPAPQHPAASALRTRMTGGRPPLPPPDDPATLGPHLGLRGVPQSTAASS

**Q.** c1ccc(CNc2cccc(-c3n[nH]c4nc(NCCN5CCCCC5)ncc34)n2)cc1 [Example 44, [3-(6-Benzylamino-pyridin-2-yl)-1H-pyrazolo[3,4-d]pyrimidin-6-yl]-(2-piperidin-1-yl-ethyl)-amine] was tested. Which IC50 (Human DYRK1A) did it give?
**A.** The IC50 was 3.96 µM.

**Q.** What about the inhibition at 10 µM (Human DYRK1B) of the same compound?
**A.** The inhibition at 10 µM was 32%.

**Q.** Which IC50 (Human DYRK1A) does the source give for c1ccc(CNc2cccc(-c3n[nH]c4nc(NCCN5CCOCC5)ncc34)n2)cc1 [Example 45, [3-(6-Benzylamino-pyridin-2-yl)-1H-pyrazolo[3,4-d]pyrimidin-6-yl]-(2-morpholin-4-yl-ethyl)-amine] here?
**A.** Its IC50 is 2.31 µM.

**Q.** And the IC50 (Human DYRK1B)?
**A.** Its IC50 is 4.58 µM.

**Q.** What does the source list for c1ccc(CNc2cccc(-c3n[nH]c4nc(NCCN5CCOCC5)ncc34)c2)cc1 [Example 46, [3-(3-Benzylamino-phenyl)-1H-pyrazolo[3,4-d]pyrimidin-6-yl]-(2-morpholin-4-yl-ethyl)-amine]?
**A.** inhibition at 10 µM (Human DYRK1A; at 10 μM test compound concentration, where the IC50 was not determined): 55%; inhibition at 10 µM (Human DYRK1B): 43%

**Q.** What does the source list for Clc1ccc(CNc2cccc(-c3n[nH]c4nc(NCCN5CCOCC5)ncc34)n2)cc1 [Example 48, {3-[6-(4-Chloro-benzylamino)-pyridin-2-yl]-1H-pyrazolo[3,4-d]pyrimidin-6-yl}-(2-morpholin-4-yl-ethyl)-amine]?
**A.** IC50 (Human DYRK1A): 2.96 µM; IC50 (Human DYRK1B): 2.92 µM

**Q.** What does the source list for Clc1ccc(CNc2cccc(-c3n[nH]c4nc(NCCN5CCOCC5)ncc34)c2)cc1 [Example 50, {3-[3-(4-Chloro-benzylamino)-phenyl]-1H-pyrazolo[3,4-d]pyrimidin-6-yl}-(2-morpholin-4-yl-ethyl)-amine]?
**A.** IC50 (Human DYRK1A): 4.91 µM; IC50 (Human DYRK1B): > 10 µM

**Q.** c1cc(NCc2ccsc2)cc(-c2n[nH]c3nc(NCCN4CCOCC4)ncc23)c1 [Example 51, (2-Morpholin-4-yl-ethyl)-(3-{3-[(thiophen-3-ylmethyl)-amino]-phenyl}-1H-pyrazolo[3,4-d]pyrimidin-6-yl)-amine] was tested. Which IC50 (Human DYRK1A) did it give?
**A.** The IC50 was 9.02 µM.

**Q.** And the IC50 (Human DYRK1B)?
**A.** The IC50 was over 10 µM.

**Q.** Which IC50 (Human DYRK1A) does the source give for N[C@H]1CC[C@H](Nc2ncc3c(-c4cccc(NCc5ccsc5)n4)n[nH]c3n2)CC1 [Example 65, N-(3-{6-[(Thiophen-3-ylmethyl)-amino]-pyridin-2-yl}-1H-pyrazolo[3,4-d]pyrimidin-6-yl)-cyclohexane-1,4-diamine; hydrochloride] here?
**A.** The IC50 was 0.021 µM.

**Q.** What about the IC50 (Human DYRK1B) of the same compound?
**A.** The IC50 was under 0.005 µM.

**Q.** What does the source list for NCC(Nc1nccc(-c2n[nH]c3nc(N[C@H]4CC[C@H](N)CC4)ncc23)n1)c1ccccc1 (stereo partly drawn) [Example 67, N-{3-[2-(2-Amino-1-phenyl-ethylamino)-pyrimidin-4-yl]-1H-pyrazolo[3,4-d]pyrimidin-6-yl}-cyclohexane-1,4-diamine; hydrochloride]?
**A.** IC50 (Human DYRK1A): 0.0046 µM; IC50 (Human DYRK1B): 0.00517 µM

**Q.** For NCCC(Nc1nccc(-c2n[nH]c3nc(N[C@H]4CC[C@H](N)CC4)ncc23)n1)c1ccccc1 (stereo partly drawn) [Example 68, N-{3-[2-(3-Amino-1-phenyl-propylamino)-pyrimidin-4-yl]-1H-pyrazolo[3,4-d]pyrimidin-6-yl}-cyclohexane-1,4-diamine; hydrochloride], which IC50 (Human DYRK1A) is on record?
**A.** Its IC50 is 0.011 µM.

**Q.** What about the IC50 (Human DYRK1B) of the same compound?
**A.** Its IC50 is 0.011 µM.

**Q.** For NCCC(Nc1cccc(-c2n[nH]c3nc(NCCN4CCOCC4)ncc23)c1)c1ccccc1 (stereo not drawn) [Example 73, N1-{3-[6-(2-Morpholin-4-yl-ethylamino)-1H-pyrazolo[3,4-d]pyrimidin-3-yl]-phenyl}-1-phenyl-propane-1,3-diamine; hydrochloride], which IC50 (Human DYRK1A) is on record?
**A.** The IC50 was 4.88 µM.

**Q.** What about the IC50 (Human DYRK1B) of the same compound?
**A.** The IC50 was 9.59 µM.

**Q.** Which results are given for NCCC(Nc1cccc(-c2n[nH]c3nc(NCCN4CCOCC4)ncc23)n1)c1ccccc1 (stereo not drawn) [Example 75, N1-{6-[6-(2-Morpholin-4-yl-ethylamino)-1H-pyrazolo[3,4-d]pyrimidin-3-yl]-pyridin-2-yl}-1-phenyl-propane-1,3-diamine; hydrochloride]?
**A.** IC50 (Human DYRK1A): 2.58 µM; IC50 (Human DYRK1B): 2.73 µM

**Q.** With N[C@H]1CC[C@H](Nc2ncc3c(-c4ccnc(NCc5cccc(C(F)(F)F)c5)n4)n[nH]c3n2)CC1 [Example 84, N-{3-[2-(3-Trifluoromethyl-benzylamino)-pyrimidin-4-yl]-1H-pyrazolo[3,4-d]pyrimidin-6-yl}-cyclohexane-1,4-diamine; hydrochloride] as the compound, how does the IC50 (Human DYRK1A) read?
**A.** Its IC50 is 0.005 µM.

**Q.** What about the IC50 (Human DYRK1B) of the same compound?
**A.** The IC50 was 0.007 µM.

**Q.** N[C@H]1CC[C@H](Nc2ncc3c(-c4ccnc(NCc5cccc(F)c5)n4)n[nH]c3n2)CC1 [Example 85, N-{3-[2-(3-Fluoro-benzylamino)-pyrimidin-4-yl]-1H-pyrazolo[3,4-d]pyrimidin-6-yl}-cyclohexane-1,4-diamine; hydrochloride] was tested. Which IC50 (Human DYRK1A) did it give?
**A.** The IC50 was 0.0046 µM.

**Q.** What about the IC50 (Human DYRK1B) of the same compound?
**A.** The IC50 was under 0.0046 µM.

**Q.** What does the source list for Clc1cccc(CNc2nccc(-c3n[nH]c4nc(NC5CCNCC5)ncc34)n2)c1 [Example 86, {3-[2-(3-Chloro-benzylamino)-pyrimidin-4-yl]-1H-pyrazolo[3,4-d]pyrimidin-6-yl}-piperidin-4-yl-amine; hydrochloride]?
**A.** IC50 (Human DYRK1A): 0.047 µM; IC50 (Human DYRK1B): 0.078 µM

**Q.** CN(C)CCNc1ncc2c(-c3ccnc(NCc4cccc(Cl)c4)n3)n[nH]c2n1 [Example 87, N-{3-[2-(3-Chloro-benzylamino)-pyrimidin-4-yl]-1H-pyrazolo[3,4-d]pyrimidin-6-yl}-N′,N′-dimethyl-ethane-1,2-diamine; hydrochloride] was tested. Which IC50 (Human DYRK1A) did it give?
**A.** The IC50 was 0.31 µM.

**Q.** And the IC50 (Human DYRK1B)?
**A.** The IC50 was 0.69 µM.

**Q.** Which results are given for Clc1cccc(CNc2nccc(-c3n[nH]c4nc(NCC5CCNCC5)ncc34)n2)c1 [Example 88, {3-[2-(3-Chloro-benzylamino)-pyrimidin-4-yl]-1H-pyrazolo[3,4-d]pyrimidin-6-yl}-piperidin-4-ylmethyl-amine; hydrochloride]?
**A.** IC50 (Human DYRK1A): 0.0089 µM; IC50 (Human DYRK1B): 0.016 µM

**Q.** How did the IC50 (Human DYRK1A) turn out when N[C@H]1CC[C@@H](Nc2ncc3c(-c4ccnc(NCc5cccc(Cl)c5)n4)n[nH]c3n2)CC1 [Example 89, N-{3-[2-(3-Chloro-benzylamino)-pyrimidin-4-yl]-1H-pyrazolo[3,4-d]pyrimidin-6-yl}-cyclohexane-1,4-diamine; hydrochloride] was run?
**A.** The IC50 was 0.415 µM.

**Q.** What about the IC50 (Human DYRK1B) of the same compound?
**A.** Its IC50 is 0.186 µM.

**Q.** Which results are given for Clc1cccc(CNc2nccc(-c3n[nH]c4nc(NCCN5CCCC5)ncc34)n2)c1 [Example 90, {3-[2-(3-Chloro-benzylamino)-pyrimidin-4-yl]-1H-pyrazolo[3,4-d]pyrimidin-6-yl}-(2-pyrrolidin-1-yl-ethyl)-amine; hydrochloride]?
**A.** IC50 (Human DYRK1A): 0.536 µM; IC50 (Human DYRK1B): 1.32 µM
